Here are results for nine compounds from patent US20250136607A1 (REGOR PHARMACEUTICALS, INC., priority 2021, published 2025).

The IC50 is the concentration that inhibits the measured activity by half.

The structures appear in SMILES notation. “And” between values parts separate entries of the source, which are not always exact repeats. Identical values can stand only once. Like-named read-outs stand apart in the source and are kept apart here.

In the assay the target is Protein arginine deiminase 4 (PAD4) (Homo sapiens, UniProt Q9UM07). Kind of assay: PAD4 ammonia release assay. Type of assay: biochemical. The method, boiled down:
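PAD4 (20 nM, 2× working solution) was preincubated with compound for 15 min at RT in 100 mM HEPES pH 8.0, 2 mM CaCl2, 50 mM NaCl, 0.1 mM TCEP, BSA at 1.25% DMSO. BAEE (600 μM, 2× mix) reacted 60 min, then OPA/DTT/EDTA detection for 120 min. IC50 came from a 4-parameter fit, normalized to 50 μM reference (100%) and DMSO (0%).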

[1] abbreviates: PAD4 ammonia release assay, BAEE substrate, 60 min at RT, read-out: Average IC50 Abs.
The mark [2] stands for this setting: PAD4 activity comparison, read-out: PAD4 Ammonia assay IC50.

Protein arginine deiminase 4 (PAD4), sequence (Q9UM07 whole entry): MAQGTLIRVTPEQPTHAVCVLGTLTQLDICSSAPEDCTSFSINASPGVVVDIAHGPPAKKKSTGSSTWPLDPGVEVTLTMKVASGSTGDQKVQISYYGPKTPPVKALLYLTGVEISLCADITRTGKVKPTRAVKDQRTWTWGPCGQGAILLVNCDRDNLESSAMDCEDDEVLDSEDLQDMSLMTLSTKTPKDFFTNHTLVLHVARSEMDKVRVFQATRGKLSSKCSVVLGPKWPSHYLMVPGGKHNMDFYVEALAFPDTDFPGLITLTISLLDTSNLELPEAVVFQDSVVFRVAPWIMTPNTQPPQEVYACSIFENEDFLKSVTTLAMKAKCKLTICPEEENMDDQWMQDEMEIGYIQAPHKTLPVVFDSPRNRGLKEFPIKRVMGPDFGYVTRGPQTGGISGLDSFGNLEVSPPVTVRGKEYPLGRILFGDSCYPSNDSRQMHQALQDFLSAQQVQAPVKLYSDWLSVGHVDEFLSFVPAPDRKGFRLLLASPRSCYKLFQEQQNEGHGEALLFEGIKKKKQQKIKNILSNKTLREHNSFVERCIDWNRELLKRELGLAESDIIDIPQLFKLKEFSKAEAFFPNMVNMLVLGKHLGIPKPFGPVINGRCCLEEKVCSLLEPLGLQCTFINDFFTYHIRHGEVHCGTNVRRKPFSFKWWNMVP

Take `COc1cc(C(=O)N2C[C@H](N)C[C@@H](C(F)(F)F)C2)cc2nc(-c3cc4cccc5c4n3CCN5CCCO)n(C)c12` [Example 17, ((3R,5R)-3-amino-5-(trifluoromethyl)piperidin-1-yl)(2-(1-(3-hydroxypropyl)-2,3-dihydro-1H-pyrrolo[1,2,3-de]quinoxalin-5-yl)-7-methoxy-1-methyl-1H-benzo[d]imidazol-5-yl)methanone]: the IC50 under setting [1] was more than 5000 nM.

For the compound `Cn1c(-c2cc3cccc4c3n2CCO4)nc2cc(C(=O)N3CCC[C@@H](N)C3)ccc21` [A, reference compound], the IC50 under setting [2] was ~15200 nM and 15200 nM.

`COc1cc(C(=O)N2CCC[C@@H](N)C2)cc2nc(-c3cc4cccc5c4n3CCN5C3CC(N)C3)n(C)c12` (stereo partly drawn) [Example 32, (R)-(2-(1-(3-aminocyclobutyl)-2,3-dihydro-1H-pyrrolo[1,2,3-de]quinoxalin-5-yl)-7-methoxy-1-methyl-1H-benzo[d]imidazol-5-yl)(3-aminopiperidin-1-yl)methanone]: the IC50 under setting [1] was in the range of 500 to 5000 nM.

Take `CCC1CNc2cccc3cc(-c4nc5cc(C(=O)N6C[C@H]7CC[C@@H]6[C@@H]7N)cc(OC)c5n4C)n1c23` (stereo partly drawn) [Example 102, ((1R,4R,7R)-7-amino-2-azabicyclo[2.2.1]heptan-2-yl)(2-(3-ethyl-2,3-dihydro-1H-pyrrolo[1,2,3-de]quinoxalin-5-yl)-7-methoxy-1-methyl-1H-benzo[d]imidazol-5-yl)methanone]: the IC50 is, setting by setting: under setting [2], 207 nM; under setting [1], 100 to 500 nM.

Take `COc1cc(C(=O)N2C[C@H](N)C[C@@H](F)C2)cc2nc(-c3cc4cccc5c4n3CCN5CCCNC(=O)NC3CC3)n(C)c12` [Example 4, 1-(3-(5-(5-((3R,5R)-3-amino-5-fluoropiperidine-1-carbonyl)-7-methoxy-1-methyl-1H-benzo[d]imidazol-2-yl)-2,3-dihydro-1H-pyrrolo[1,2,3-de]quinoxalin-1-yl)propyl)-3-cyclopropylurea]: under setting [1], the IC50 was 500 to 5000 nM.

Take `COc1cc(C(=O)N2C[C@H](N)C[C@@H](F)C2)cc2nc(-c3cc4cccc5c4n3CCN5Cc3cnn(C)c3)n(C)c12` [Example 26, ((3R,5R)-3-amino-5-fluoropiperidin-1-yl)(7-methoxy-1-methyl-2-(1-((1-methyl-1H-pyrazol-4-yl)methyl)-2,3-dihydro-1H-pyrrolo[1,2,3-de]quinoxalin-5-yl)-1H-benzo[d]imidazol-5-yl)methanone]: under setting [1], the 50% inhibitory concentration (IC50) fell in the range of 500 to 5000 nM.

Regarding `CCC1C(=O)Nc2cccc3cc(-c4nc5cc(C(=O)N6C[C@H]7CC[C@@H]6[C@@H]7N)cc(F)c5n4C)n1c23` (stereo partly drawn) [Example 129, 5-(5-((1R,4R,7R)-7-amino-2-azabicyclo[2.2.1]heptane-2-carbonyl)-7-fluoro-1-methyl-1H-benzo[d]imidazol-2-yl)-3-ethyl-1H-pyrrolo[1,2,3-de]quinoxalin-2(3H)-one], the half-inhibitory concentration (IC50) under setting [1] was 100 to 500 nM.

On to `Cn1c(-c2cc3ccc4c(c3n2CC2CC2)NCC4(C)C)nc2cc(C(=O)N3C[C@H]4CC[C@@H]3[C@@H]4N)cc(F)c21` [Example 142, ((1R,4R,7R)-7-amino-2-azabicyclo[2.2.1]heptan-2-yl)(2-(1-(cyclopropylmethyl)-6,6-dimethyl-1,6,7,8-tetrahydropyrrolo[3,2-g]indol-2-yl)-7-fluoro-1-methyl-1H-benzo[d]imidazol-5-yl)methanone], for which, under setting [1], the IC50 was 500 to 5000 nM.

In the case of `CCC1C(=O)Nc2c(F)ccc3cc(-c4nc5cc(C(=O)N6C[C@H]7CC[C@@H]6[C@@H]7N)cc(F)c5n4C)n1c23` (stereo partly drawn) [Example 126, 5-(5-((1R,4R,7R)-7-amino-2-azabicyclo[2.2.1]heptane-2-carbonyl)-7-fluoro-1-methyl-1H-benzo[d]imidazol-2-yl)-3-ethyl-9-fluoro-1H-pyrrolo[1,2,3-de]quinoxalin-2(3H)-one], the IC50 under setting [1] is 500 to 5000 nM.
